Results reported in ChEMBL document CHEMBL5620362 (Eur J Med Chem, 2023).
Activity calls are given as the source filed them. The rule behind the calls is not given here.

Experiments:
[1] = AUC (infinity) in ICR mouse at 10 mg/kg, po; type: ADME, organism-based; conditions: in vivo
MIA PaCa-2 = test: Induction of apoptosis in human MIA PaCa-2 cells 1 uM incubated for 48 hrs by Annexin V-FITC/PI staining based flow cytometry; type: functional, cell-based
HPAF-II [2] = test: Induction of apoptosis in human HPAF-II cells harboring siROR-gamma at 0.1 uM incubated for 24 hrs by Annexin V-FITC/PI staining based flow cytometry; type: functional, cell-based
HPAF-II [3] = test: Induction of apoptosis in human HPAF-II cells assessed as increase in cleaved caspase-3 level at 0.1 to 1 uM incubated for 48 hrs by Western blot analysis; type: functional, cell-based; conditions: dose 0.1-1 µM
HPAF-II [4] = test: Induction of apoptosis in human HPAF-II cells assessed as increase in cleaved PARP level at 0.1 to 1 uM incubated for 48 hrs by Western blot analysis; type: functional, cell-based; conditions: dose 0.1-1 µM
NCI-H23 [5] = test: Induction of apoptosis in human NCI-H23 cells assessed as early apoptotic cells at 1 uM incubated for 48 hrs by Annexin V-FITC/PI staining based flow cytometry (reference value: 4.17 %); type: functional
HPAF-II [6] = test: Antitumor activity against human HPAF-II cells xenografted in nude Balb/cA mouse assessed as tumor growth inhibition at 150 mg/kg, po qd measured for 12 days relative to control; type: functional; design: scale not given: the % may be the effect or the level left; conditions: time 12 day
NCI-H23 [7] = test: Induction of apoptosis in human NCI-H23 cells assessed as late apoptotic cells at 10 uM incubated for 48 hrs by Annexin V-FITC/PI staining based flow cytometry (reference value: 2.89 %); type: functional
[8] = AUClast in ICR mouse at 10 mg/kg, po; type: ADME, organism-based; conditions: in vivo
HPAF-II [9] = test: Anticancer activity against human HPAF-II cells incubated for 72 hrs; type: functional, cell-based
HPAF-II [10] = test: Induction of apoptosis in human HPAF-II cells assessed as viable cells at 1 uM incubated for 48 hrs by Annexin V-FITC/PI staining based flow cytometry (reference value: 89.73 %); type: functional; conditions: read-out: Activity
[11] = Half life in ICR mouse at 10 mg/kg, po; type: ADME, organism-based; conditions: in vivo
BXPC-3 = test: Anticancer activity against human BXPC-3 cells incubated for 72 hrs; type: functional, cell-based
[12] = Toxicity in nude Balb/cA mouse xenografted with human HPAF-II cells assessed as body weight loss at 15 mg/kg, ip qd measured for 12 days; type: organism-based; conditions: in vivo, 288 h, time 12 day
[13] = Toxicity in nude Balb/cA mouse xenografted with human HPAF-II cells assessed as redness at injection site at 15 mg/kg, ip qd measured for 12 days; type: organism-based; conditions: in vivo, 288 h, time 12 day
[14] = AUClast in ICR mouse at 3 mg/kg, iv; type: ADME, organism-based; conditions: in vivo
HPAF-II [15] = test: Antitumor activity against human HPAF-II cells measured after 72 hrs; type: functional, cell-based
NCI-H358 = test: Induction of apoptosis in human NCI-H358 cells 1 uM incubated for 48 hrs by Annexin V-FITC/PI staining based flow cytometry; type: functional, cell-based
HPAF-II [16] = test: Induction of apoptosis in human HPAF-II cells assessed as necrotic cells at 1 uM incubated for 48 hrs by Annexin V-FITC/PI staining based flow cytometry (reference value: 8.09 %); type: functional

AUC(0-inf) [1]: 2050 ng·h/mL
AUC(0-t) [8]: 1670 ng·h/mL
half-life [11]: 11.9 h
AUC(0-t) [14]: 2980 ng·h/mL
IC50 (HPAF-II [15]): 90 nM
Structure (SMILES): C=C(C)[C@@H]1CC[C@]2(C(=O)NCCCN(C)C)CC[C@]3(C)[C@H](CC[C@@H]4[C@@]5(C)CC[C@H](O)C(C)(C)[C@@H]5CC[C@]43C)[C@@H]12
Activity (MIA PaCa-2): Active
Activity (HPAF-II [2]): inactive
Activity (HPAF-II [3]): Active
Activity (HPAF-II [4]): Active
Activity (NCI-H23 [5]): 67.63%
Activity (HPAF-II [6]): 39%
Activity (NCI-H23 [7]): 28.83%
Activity (HPAF-II [9]): Active
viability at 1 µM (HPAF-II [10]): 38.2%
Activity (BXPC-3): Active
Activity [12]: 19%
Activity [13]: Toxic
Activity (NCI-H358): Active
Activity (HPAF-II [16]): 2.06%
